Measured values published in the supplement of paper PMC11208160.

Assay: recombinant barcode read abundance after kanamycin selection (control-corrected) (log10(CPM+1)); higher = more efficient recombination; sequences stand for … in AGTGCAGAGAAAATCGGCCAGTTTTCTCTGCCTGCAGTCCGCATGCCGT…AGATTTATGCAGCGGACTGCCTTTCTCCCAAAGTGATAAACCGGACAGTATCATGGACCGGTTTTCCCGGTAATCCGTATTTGCAAGGTTGGTTTCACT; site = the 11-nt target
Procedure, shortened: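 In E. coli, a pooled library matched targets to IS621 bridge RNA target-binding loops and was introduced alongside a donor plasmid. Cells went onto chloramphenicol/ampicillin/kanamycin with 0.1 mM IPTG or onto chloramphenicol/ampicillin LB agar as control, in duplicate. Recombination efficiency, from recombinant-junction barcodes as counts per million, is averaged and control-corrected. It is reported as log10(CPM+1).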
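Note: IS621 recombinase and bridge RNA in Escherichia coli cells.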

Row | Sequence | recombinant barcode read abundance (log10)
1 | ATGCGGTCTTGGGTTCTAACCTGTTGCCT (site ATGCGGTCTAG) | 2.02
2 | ATGCGGTCTTGGGTTCTAACCTGTTGCCT (site CTGCGGTCTAT) | 0.112
3 | ATGCTAACTTGGGTTCTAACCTGTTGCCT (site ATGCTAACTAG) | 1.62
4 | ATGCTAACTTGGGTTCTAACCTGTTGCCT (site GTGCTAACTTG) | 0.471
5 | ATGCTATCTTGGGTTCTAACCTGTTGCAG (site ATGCTATCTCT) | 0.678
6 | ATGCTATCTTGGGTTCTAACCTGTTGCAG (site CACGGTCCTTG) | 0.276
7 | ATGCTGTCTTGGGTTCTAACCTGTTGCTA (site ATGCTGTCTTA) | 1.52
8 | ATGCTGTCTTGGGTTCTAACCTGTTGCTA (site GACTACCCTAG) | 0.273
9 | ATGGCACCTTGGGTTCTAACCTGTTGCCT (site AGGGCACCTTG) | 0.035
10 | ATGGCACCTTGGGTTCTAACCTGTTGCCT (site ATGGCACCTAG) | 1.04
11 | ATGGCCTCTTGGGTTCTAACCTGTTGCTA (site ATGGCCTCTTA) | 2.5
12 | ATGGCCTCTTGGGTTCTAACCTGTTGCTA (site GCTTAAACTAG) | 0.0975
13 | ATGGGCCCTTGGGTTCTAACCTGTTGCTG (site ATGGGCCCTAA) | 0.13
14 | ATGGGCCCTTGGGTTCTAACCTGTTGCTG (site ATGGGCCCTCA) | 2.97
15 | ATGGGCCCTTGGGTTCTAACCTGTTGCTG (site ATGGGCCCTGA) | 0.127
16 | ATGGGCCCTTGGGTTCTAACCTGTTGCTG (site ATGGGCCCTTA) | 0.511
17 | ATGGGGTCTTGGGTTCTAACCTGTTGCTT (site AAGGGGTCTAA) | 0.223
18 | ATGGGGTCTTGGGTTCTAACCTGTTGCTT (site ATGGGGTCTAA) | 1.73
19 | ATGGGTCCTTGGGTTCTAACCTGTTGCCG (site ATAGGTCCTCA) | 0.536
20 | ATGGGTCCTTGGGTTCTAACCTGTTGCCG (site ATGGGTCCTCG) | 2.21
21 | ATGGTCACTTGGGTTCTAACCTGTTGCCT (site AAGGTCACTAG) | 0.354
22 | ATGGTCACTTGGGTTCTAACCTGTTGCCT (site ACGGTCACTAG) | 1.18

Row | Sequence | recombinant barcode read abundance (log10)
23 | ATGGTCACTTGGGTTCTAACCTGTTGCCT (site AGGGTCACTAG) | 0.0805
24 | ATGGTCACTTGGGTTCTAACCTGTTGCCT (site ATGGTCACTAG) | 2.54
25 | ATGGTGTCTTGGGTTCTAACCTGTTGCCT (site ATGGTGACTAG) | 0.109
26 | ATGGTGTCTTGGGTTCTAACCTGTTGCCT (site ATGGTGCCTAG) | 0.768
27 | ATGGTGTCTTGGGTTCTAACCTGTTGCCT (site ATGGTGGCTAG) | 0.0539
28 | ATGGTGTCTTGGGTTCTAACCTGTTGCCT (site ATGGTGTCTAG) | 2.75
29 | ATGTACACTTGGGTTCTAACCTGTTGCCT (site ATGGATACTAG) | 0.0684
30 | ATGTACACTTGGGTTCTAACCTGTTGCCT (site ATGTACACTAG) | 1.55
31 | ATGTAGTCTTGGGTTCTAACCTGTTGCCT (site ATGTAGTCTAG) | 1.89
32 | ATGTAGTCTTGGGTTCTAACCTGTTGCCT (site TTGTCGTCTAG) | 0.24
33 | ATGTCCTCTTGGGTTCTAACCTGTTGCCT (site ATGACCTCTAG) | 0.145
34 | ATGTCCTCTTGGGTTCTAACCTGTTGCCT (site ATGCCCTCTAG) | 0.872
35 | ATGTCCTCTTGGGTTCTAACCTGTTGCCT (site ATGGCCTCTAG) | 0.276
36 | ATGTCCTCTTGGGTTCTAACCTGTTGCCT (site ATGTCCTCTAG) | 1.5
37 | ATGTCTGCTTGGGTTCTAACCTGTTGCCT (site ATGTCTGCTAG) | 0.475
38 | ATGTCTGCTTGGGTTCTAACCTGTTGCCT (site GATGGACCTTA) | 0.0105
39 | ATGTGAACTTGGGTTCTAACCTGTTGCTG (site ATGTGAACTCA) | 1.02
40 | ATGTGAACTTGGGTTCTAACCTGTTGCTG (site GCAGCCTCTAC) | 0.0648
41 | ATGTGCTCTTGGGTTCTAACCTGTTGCCT (site AAGTGCTCTAG) | 0.204
42 | ATGTGCTCTTGGGTTCTAACCTGTTGCCT (site ACGTGCTCTAG) | 0.253
43 | ATGTGCTCTTGGGTTCTAACCTGTTGCCT (site AGGTGCTCTAG) | 0.22
44 | ATGTGCTCTTGGGTTCTAACCTGTTGCCT (site ATGTGCTCTAG) | 2.07

Row | Sequence | recombinant barcode read abundance (log10)
45 | ATGTTAGCTTGGGTTCTAACCTGTTGCCT (site ATGTAGGCTAG) | 0.208
46 | ATGTTAGCTTGGGTTCTAACCTGTTGCCT (site ATGTTAGCTAG) | 1.65
47 | ATTCGAGCTTGGGTTCTAACCTGTTGCAT (site ATTCGAGCTAT) | 1.18
48 | ATTCGAGCTTGGGTTCTAACCTGTTGCAT (site CGGGCGTCTTA) | 0.203
49 | ATTCGGCCTTGGGTTCTAACCTGTTGCCT (site AGTCGGCCTAG) | 0.038
50 | ATTCGGCCTTGGGTTCTAACCTGTTGCCT (site ATTCGGCCTAG) | 0.0683
51 | ATTGCTCCTTGGGTTCTAACCTGTTGCCT (site ATTGCTCCTAG) | 0.416
52 | ATTGCTCCTTGGGTTCTAACCTGTTGCCT (site ATTGGTCCTAT) | 0.126
53 | ATTGCTCCTTGGGTTCTAACCTGTTGCTT (site ATTGCTCCTAA) | 0.106
54 | ATTGCTCCTTGGGTTCTAACCTGTTGCTT (site GGTGCTCCTAA) | 0.722
55 | ATTGGTCCTTGGGTTCTAACCTGTTGCCT (site ATAGGTCCTAG) | 0.994
56 | ATTGGTCCTTGGGTTCTAACCTGTTGCCT (site ATCGGTCCTAG) | 0.27
57 | ATTGGTCCTTGGGTTCTAACCTGTTGCCT (site ATGGGTCCTAG) | 0.187
58 | ATTGGTCCTTGGGTTCTAACCTGTTGCCT (site ATTGGTCCTAG) | 1.66
59 | ATTGGTTCTTGGGTTCTAACCTGTTGCCT (site ATTGGATCTAG) | 0.114
60 | ATTGGTTCTTGGGTTCTAACCTGTTGCCT (site ATTGGCTCTAG) | 0.104
61 | ATTGGTTCTTGGGTTCTAACCTGTTGCCT (site ATTGGGTCTAG) | 0.0515
62 | ATTGGTTCTTGGGTTCTAACCTGTTGCCT (site ATTGGTTCTAG) | 1.22
63 | ATTTGAACTTGGGTTCTAACCTGTTGCCT (site ATTTGAACTAG) | 0.086
64 | ATTTGAACTTGGGTTCTAACCTGTTGCCT (site ATTTGCACTAG) | 0.0882
65 | ATTTGAACTTGGGTTCTAACCTGTTGCCT (site ATTTGGACTAG) | 0.148
66 | ATTTGAACTTGGGTTCTAACCTGTTGCCT (site ATTTGTACTAG) | 0.101

Row | Sequence | recombinant barcode read abundance (log10)
67 | ATTTGACCTTGGGTTCTAACCTGTTGCCG (site ACTTGACCTCT) | 0.205
68 | ATTTGACCTTGGGTTCTAACCTGTTGCCG (site ATTTGACCTCG) | 0.67
69 | ATTTGAGCTTGGGTTCTAACCTGTTGCTG (site ATTTGAGCTCA) | 0.732
70 | ATTTGAGCTTGGGTTCTAACCTGTTGCTG (site GTATGAGCTCA) | 0.0966
71 | CAAAAGGCTTGGGTTCTAACCTGTTGCCG (site CAAAAGGCTCG) | 1.18
72 | CAAAAGGCTTGGGTTCTAACCTGTTGCCG (site GTGTCCTCTAC) | 0.239
73 | CAAACACCTTGGGTTCTAACCTGTTGCTT (site CAAACACCTAA) | 0.712
74 | CAAACACCTTGGGTTCTAACCTGTTGCTT (site CAACCACCTAA) | 0.0879
75 | CAAACACCTTGGGTTCTAACCTGTTGCTT (site CAAGCACCTAA) | 0.0323
76 | CAAACACCTTGGGTTCTAACCTGTTGCTT (site CAATCACCTAA) | 0.426
77 | CAAACCTCTTGGGTTCTAACCTGTTGCAC (site CAAACCTCTGT) | 1.97
78 | CAAACCTCTTGGGTTCTAACCTGTTGCAC (site TCTTAGACTTC) | 0.0456
79 | CAAAGCCCTTGGGTTCTAACCTGTTGCCT (site CAAAGCCCTAG) | 1.9
80 | CAAAGCCCTTGGGTTCTAACCTGTTGCCT (site CGGAGCCCTAG) | 0.349
81 | CAACCGACTTGGGTTCTAACCTGTTGCCT (site CAACCGACTAG) | 1.61
82 | CAACCGACTTGGGTTCTAACCTGTTGCCT (site CAACCGCCTAG) | 0.265
83 | CAACCGACTTGGGTTCTAACCTGTTGCCT (site CAACCGGCTAG) | 0.0866
84 | CAACCGACTTGGGTTCTAACCTGTTGCCT (site CAACCGTCTAG) | 0.0239
85 | CAACCGCCTTGGGTTCTAACCTGTTGCCT (site CAACCGACTAG) | 0.411
86 | CAACCGCCTTGGGTTCTAACCTGTTGCCT (site CAACCGCCTAG) | 1.43
